Assays:
[1] = in ethanol; cited from earlier work
[2] = 25° C.; cited from earlier work
[3] = In vivo toxicity (body mass, histology of kidney, liver, spleen); parameters: species or system mouse; settings: mice n=3, 2 mgDOX/kg i.v., period of 3 weeks
Experimental: In vivo degradation, toxicity, and circulation. All animal work was performed in accordance with the institutional animal protocol guidelines in place at the Burnham Institute for Medical Research, and it was reviewed and approved by the Institute's Animal Research Committee. […] For in vivo degradation studies, the mice were sacrificed 1 day, 1 week and 4 weeks after injection, and the brain, heart, kidney, liver, lung, and spleen were collected. The tissues were weighed, digested, and then analyzed for silicon content using ICP-OES. For the in vivo toxicity studies, the mass of each mouse was monitored for 4 weeks after injection and compared with control mice (PBS-injected). The sections of kidney, liver, and spleen tissues harvested from the mice 1 day and 4 weeks after injection were stained with haematoxylin and eosin and then examined by a pathologist.
To examine preliminary in vivo toxicity, body mass of the mice was monitored every 3 days over a period of 3 weeks.

[4] = Biodistribution of DOX in mouse organs (DOX fluorescence); assay type: in vivo; settings: mice n=3, 24 h after single i.v. injection, 2 mgDOX/kg
Experimental: To determine biodistribution of free DOX and DOX-LPSiNP in mouse, the organs (liver, spleen, kidney, lung, heart, and brain) were collected 24 h after injection, weighed, homogenized in 1.5 mL of 0.3 M HCl 70% ethanol solution, and further incubated in the same solution overnight to extract DOX molecules from the organs and DOX-LPSiNP. The homogenized solution was spun down at 10,000 rpm for 10 min and the supernatant was only used to measure the DOX fluorescence. The DOX fluorescence (λex=480nm and λem=590 nm) in each tissue was quantified as % injected dose (% ID) per gram of wet tissue.

SMILES: O=C(O)c1ccccc1C1=c2cc3c4c(c2Oc2c1cc1c5c2CCCN5CCC1)CCC[N+]=4CCC3.[Cl-] [Rhodamine 101]
- quantum yield of standard [1]: 100%

SMILES: OB(O)O [boric acid]
- pKa [2]: 9.14

SMILES: COc1cccc2c1C(=O)c1c(O)c3c(c(O)c1C2=O)C[C@@](O)(C(=O)CO)C[C@@H]3O[C@H]1C[C@H](N)[C@H](O)[C@H](C)O1 [free DOX, doxorubicin]
- body mass (weight) change vs PBS control [3]: no statistically significant difference
- biodistribution of DOX [4]: accumulated in kidney, lung, and heart

— patent US20110300222A1, “LUMINESCENT POROUS SILICON NANOPARTICLES, METHODS OF MAKING AND USING SAME” (THE REGENTS OF THE UNIVERSITY OF CALIFORNIA, priority 2009, published 2011)
